From PMC5358776, “Insight into the mechanism of action of temporin-SHa, a new broad-spectrum antiparasitic and antibacterial agent” (PLoS ONE, 2017)
Where two headings read alike, the source gives them in different places. Where no end group is shown, it is not given here.

Tests used:
[1] = tested on: L. amazonensis promastigotes
Procedure: (§2) L. infantum axenic amastigotes were differentiated from promastigotes in MAA medium (supplemented with 20% FCS) and were grown at 37°C in 5% CO2 [23].
(§3) Antiparasitic activity was evaluated against trypanosomatids, such as Leishmania and Trypanosoma. Antileishmanial activity was determined either by a luminescence-based assay (L. infantum, L. major and L. braziliensis) or by cell counting (FACSCalibur flow cytometer, Becton-Dickinson Biosciences, Woburn, MA, USA) after staining with propidium iodide (L. tropica and L. amazonensis), as previously described [23], using promastigotes or axenic amastigotes (1.25 x 10^6 parasites/ml) in mid-log phase and 5-fold serial dilutions of synthetic temporin (50–3.1 μM, final concentrations). […] The half maximal inhibitory concentration (IC50) value was determined with GraphPad Prism 6.0 software (GraphPad Software, La Jolla, CA, USA) using a sigmoidal dose response (variable slope) curve fitting equation. The results are expressed as the means of three independent experiments performed in triplicate (luminescence-based assays) or in duplicate (cell counting-based assays).

Rat erythrocytes = details: 1 h
Procedure: (§4) Hemolytic assays were also performed using erythrocytes obtained from fresh blood samples of Wistar male rats (Charles River Laboratories, France). The hemolytic activity was measured by incubating the peptide (1–200 μM, final concentrations) with erythrocytes (2 x 10^7 cells) in PBS (100 μl) for 1 h at 37°C, as previously described [23]. A parallel incubation in the presence of 0.1% (v/v) Triton-X100 was carried out to determine the absorbance associated with 100% hemolysis. […] For THP-1-derived macrophages, viability was determined by Trypan blue staining after incubation with peptide (1–100 μM, final concentrations). LC50 (average concentration of the peptide producing 50% cell lysis) and IC50 values were determined with GraphPad Prism 6.0 software and correspond to the mean obtained from three independent experiments carried out with three (erythrocytes, THP-1 monocytes, HepG2 and HFF cells) or six replicates (THP-1-derived macrophages).
(§5) IC50 or LC50 values were determined for the different human cells mentioned above in the cytotoxicity assays.

[2] = tested on: S. enterica (serotype Enteritidis)
Procedure: (§6) Activity against bacteria and yeasts was assessed with a liquid growth inhibition assay performed in 96-well microtitration plates, according to a previously described protocol [14], using mid-logarithmic phase cultures diluted in Mueller-Hinton (MH, Dominique Dutscher) broth (LB broth for E. faecalis strain and YPD medium for yeasts/fungi) to an A630 value of 0.01 (10^6 cfu/ml) and 2-fold serial dilutions of synthetic temporin (200–1 μM, final concentrations). The minimal inhibitory concentration (MIC) was determined as the mean value of three independent experiments, each performed in triplicate with negative (H2O) and positive (0.7% formaldehyde) controls.

E. coli ML-35p [3] = details: MH broth, 10^6 cfu/ml; mean of 3 independent experiments in triplicate
Procedure: (§7) Listeria ivanovii Li4pVS2 (kindly provided by Jean-Marc Berjeaud, Université de Poitiers, France), and Streptococcus pyogenes ATCC 19615 (ATCC) were cultured in brain heart infusion (BHI, Sigma-Aldrich) medium under the same conditions.
as §6

[4] = tested on: L. infantum (intramacrophagic) amastigotes in THP-1-derived macrophages
Procedure: Leishmania infantum (strain MHOM/MA/67/ITMAP-263), Leishmania major (strain MHOM/SU/73/5-ASKH), Leishmania tropica (strain MHOM/SU/74/SAFK27), Leishmania amazonensis (strain MHOM/BR/73/M2269), and Leishmania braziliensis (strain MHOM/BR/75/M2904) promastigotes (kindly provided by Francine Pratlong, Centre National de Référence des Leishmania, Montpellier, France) were cultured at 26°C in SDM-79 medium supplemented with 10% fetal calf serum (FCS, Gibco) [23]. […] L. infantum-infected human macrophages were obtained from human THP-1 monocytes, as previously described [23, 78].
Intramacrophagic leishmanicidal activity of the peptides was assessed by incubating L. infantum-infected human macrophages with 2-fold serial dilutions of peptide (50–2.5 μM, final concentrations) for 4 days, as previously described [23]. THP-1-derived macrophages were infected with promastigotes from late log phase at a density of 5 x 10^5 cells/well (ratio 10:1) in RPMI medium for 24 h at 37°C with 5% CO2. […] The results are expressed as the means of two experiments performed with six replicates.

Human THP-1 monocytes = details: 72 h
[5] = tested on: Human THP-1-derived macrophages; assay: Cytotoxicity, Trypan blue staining; details: 1–100 μM, mean of 3 independent experiments, six replicates
Procedure: as §4, §5

[6] = tested on: L. braziliensis promastigotes
Procedure: as §2, §3

[7] = tested on: L. infantum (antimony resistant) promastigotes; details: antimony-resistant parasites
Procedure: (§8) Antiparasitic activity was evaluated against trypanosomatids, such as Leishmania and Trypanosoma. Antileishmanial activity was determined either by a luminescence-based assay (L. infantum, L. major and L. braziliensis) or by cell counting (FACSCalibur flow cytometer, Becton-Dickinson Biosciences, Woburn, MA, USA) after staining with propidium iodide (L. tropica and L. amazonensis), as previously described [23], using promastigotes or axenic amastigotes (1.25 x 10^6 parasites/ml) in mid-log phase and 5-fold serial dilutions of synthetic temporin (50–3.1 μM, final concentrations). Antitrypanosomal activity against T. brucei gambiense and T. cruzi was assessed by cell counting, similar to the L. tropica and L. amazonensis analysis, after incubation of the parasites (96 h for T. brucei gambiense and 120 h for T. cruzi) with the synthetic temporin, as previously described [23]. The half maximal inhibitory concentration (IC50) value was determined with GraphPad Prism 6.0 software (GraphPad Software, La Jolla, CA, USA) using a sigmoidal dose response (variable slope) curve fitting equation. The results are expressed as the means of three independent experiments performed in triplicate (luminescence-based assays) or in duplicate (cell counting-based assays).

Human erythrocytes [8] = assay: Hemolytic assay; details: 1 h, 37°C, PBS, 2 x 10^7 cells; mean of 3 independent experiments in triplicate
Procedure: as §4, §5

Human fibroblasts (HFF) = details: 72 h
Gram-positive bacteria = details: 7 Gram-positive strains of Table 3
[9] = tested on: L. infantum (axenic) amastigotes
Procedure: as §2, §3

Human HepG2 = details: MTT, 72 h, 37°C, 50–600 μM; mean of 3 independent experiments in triplicate
S. aureus ATCC 43300 = details: strain resistant to methicillin and oxacillin; MH broth, 10^6 cfu/ml; mean of 3 independent experiments in triplicate
Procedure: as §7, §6

[10] = tested on: L. infantum promastigotes; details: 3 μM, at 180 min, HBSS
[11] = tested on: L. infantum promastigotes
Procedure: as §2, §3

E. coli ML-35p [12] = assay: Time-kill assay; assay type: cell-based, Escherichia coli; details: 120-min exposure, 12 μM, PBS, 10^6 cfu/ml
Procedure: Time-kill assays were performed on bacteria and Leishmania infantum promastigotes. For bacteria (E. coli ML-35p and S. aureus ST1065, 10^6 cfu/ml), assays were performed as previously described, with final temporin concentrations of 6 and 12 μM. For parasite time-kill assays, Leishmania infantum promastigotes harvested in exponential phase were washed twice (1,000 x g, 10 min) with Hank's balanced salt solution (HBSS) supplemented with 20 mM glucose and then suspended in the same buffer to a density of 2.5 x 10^6 cells/ml. This suspension (800 μl) was incubated with 200 μl of a 5X temporin solution, and parasitic death was evaluated at different times by counting parasites (FACSCalibur) after staining with 1 μg/ml propidium iodide (Molecular Probes). Negative controls were assayed without peptides. Three experiments were carried out in triplicate for bacteria or in duplicate for parasites.

Gram-negative bacteria = details: 6 Gram-negative strains of Table 3
[13] = tested on: promastigotes of several species of Leishmania
Procedure: as §8

[14] = tested on: C. parapsilosis ATCC 22019
Procedure: (§9) Candida albicans ATCC 90028, Candida parapsilosis ATCC 22019 (ATCC), and Saccharomyces cerevisiae (laboratory collection) were cultured in yeast peptone dextrose (YPD, Sigma-Aldrich) medium at 30°C.
(§10) The minimal inhibitory concentration (MIC) was determined as the mean value of three independent experiments, each performed in triplicate with negative (H2O) and positive (0.7% formaldehyde) controls.

Yeasts/fungi = details: for MICGM (geometric mean of the MIC values): 3 yeast/fungal strains of Table 3
Human erythrocytes [15] = details: 1 h
Procedure: as §4, §5

[16] = tested on: Gram-negative and Gram-positive bacteria and yeasts/fungi; assay: MIC, whole panel of strains; assay type: cell-based; details: all the tested bacteria
[17] = tested on: L. infantum promastigotes; assay: DNA fragmentation, TUNEL assay; assay type: cell-based, Leishmania infantum; details: 50 μM, 48 h
Procedure: (§1) Mid-log phase L. infantum promastigotes were synchronized at the G1/S border by treating with 10 mM hydroxyurea for 24 h at 26°C [81]. […] Then 400 μl of different concentrations of peptide (12.5, 25 and 50 μM, final concentrations) were added to 1.6 ml of the cell suspension. After 48 h incubation, samples were split into two volumes (2 x 1 ml) to analyze the cell cycle and DNA fragmentation. For cell cycle analysis, the first sample (1 ml) was centrifuged (1,000 x g, 10 min) and 100 μl of HBSS was added to the pellet. Then, 900 μl of cold 70% ethanol was gently added drop-wise for cell fixation. After an overnight incubation at -20°C, cells were washed (16,000 x g, 10 min, 4°C) with HBSS and resuspended in 1 ml of HBSS containing 100 μg of RNase A (Sigma-Aldrich) and 5 μg of propidium iodide. After 30 min of incubation at 37°C, samples were passed 5 times through a sterile plastic syringe fitted with a 27 gauge needle and analyzed by flow cytometry (FACSCalibur). For DNA fragmentation analysis, a TUNEL assay was performed on the second 1 ml sample. […] DNA strand breaks were detected by the addition of biotinylated nucleotides to the free 3′-hydroxyl ends of the DNA fragments using TdT (terminal deoxynucleotidyl transferase) and tagged with a streptavidin-FITC conjugate for subsequent detection by flow cytometry. […]

[18] = tested on: L. infantum promastigotes; assay: Cell cycle analysis, sub-G1 phase; assay type: cell-based, Leishmania infantum; details: 50 μM, 48 h
Procedure: as §1

[19] = MH broth, 10^6 cfu/ml, mean of 3 independent experiments in triplicate
[20] = mean of 3 independent experiments in triplicate
[21] = YPD medium, mean of 3 independent experiments in triplicate

Procedure for A. baumannii ATCC 19606: as §6
Procedure for C. albicans ATCC 90028: as §9, §10
Procedure for E. coli ATCC 25922: as §7, §6
Procedure for E. faecalis ATCC 29212: as §7, §6
Procedure for K. pneumoniae ATCC 13883: as §6
Procedure for L. ivanovii: as §7, §6
Procedure for L. major promastigotes: as §2, §3
Procedure for P. aeruginosa ATCC 27853: as §7, §6
Procedure for S. aureus ATCC 25923: as §6
Procedure for S. aureus ST1065: as §6
Procedure for S. cerevisiae: as §9, §10
Procedure for S. pyogenes ATCC 19615: as §7, §6
Procedure for T. brucei gambiense: as §8
Procedure for T. cruzi epimastigotes: as §8

Which results are given for FLSGIVGMLGKLF-NH2 [SHa, temporin-SHa]?
MIC (A. baumannii ATCC 19606; [19]): 6 µM; MIC (E. faecalis ATCC 29212; LB broth, 10^6 cfu/ml, mean of 3 independent experiments in triplicate): 12 µM; IC50 ([1]; cell counting, mean of 3 independent experiments in duplicate): 13 µM; IC50 (L. major promastigotes; [20]): 13 µM; LC50 (Rat erythrocytes; 37°C, PBS, 2 x 10^7 cells, mean of 3 independent experiments in triplicate): 25 µM; MIC [2, 19]: 25 µM; MIC (E. coli ATCC 25922; [19]): 10 µM; MIC (E. coli ML-35p [3]): 10 µM; IC50 ([4]; infected THP-1-derived macrophages, 4 days, mean of 2 experiments with six replicates): 9 µM; IC50 (Human THP-1 monocytes; MTT, 37°C, 1–60 μM, mean of 3 independent experiments in triplicate): > 60 µM; LC50 [5]: 60 µM; IC50 [6, 20]: 7 µM; IC50 [7]: 14 µM; LC50 (Human erythrocytes [8]): 25 µM; MIC (S. aureus ATCC 25923; [19]): 3 µM; MIC (P. aeruginosa ATCC 27853; [19]): 50 µM; MIC (C. albicans ATCC 90028; [21]): 25 µM; IC50 (Human fibroblasts (HFF); MTT, 37°C, 1–100 μM, mean of 3 independent experiments in triplicate): > 100 µM; MICGM (geometric mean of the MIC values) (Gram-positive bacteria): 6 µM; IC50 (T. brucei gambiense; 96 h incubation, cell counting, mean of 3 independent experiments in duplicate): 14 µM; IC50 ([9]; axenic amastigotes): 20 µM; MIC (S. pyogenes ATCC 19615; [19]): 6 µM; MIC (L. ivanovii; [19]): 6 µM; IC50 (Human HepG2): 560 µM; MIC (S. aureus ATCC 43300): 6 µM; killing [10]: 38%; MIC (S. cerevisiae; [21]): 12 µM; IC50 ([11]; medium with serum, mean of 3 independent experiments in triplicate): 18 µM; IC50 ([11]; serum-free medium (values in parentheses)): 8 µM; IC50 (T. cruzi epimastigotes; 120 h incubation, cell counting, mean of 3 independent experiments in duplicate): 17 µM; killing (E. coli ML-35p [12]): approximately 93%; MICGM (geometric mean of the MIC values) (Gram-negative bacteria): 14.4 µM; MIC (K. pneumoniae ATCC 13883; [19]): 12 µM; IC50 ([13]; read-out: IC50 (range over Leishmania species), promastigotes of L. infantum, L. major, L. amazonensis, L. braziliensis): 7 to 18 µM; MIC (S. aureus ATCC BAA-44; multidrug-resistant strain, MH broth, 10^6 cfu/ml, mean of 3 independent experiments in triplicate): 6 µM; MIC [14, 21]: 100 µM; MIC (S. aureus ST1065; [19]): 6 µM; MICGM (geometric mean of the MIC values) (Yeasts/fungi): 31.1 µM

For “FLKGIVGMLGKLF-NH2 [[K^3]SHa, [K^3]temporin-SHa]”, which MIC (A. baumannii ATCC 19606; ATCC 19606) is on record?
The MIC was 3 µM.

And the MIC (E. faecalis ATCC 29212; ATCC 29212)?
The MIC was 6 µM.

What about the IC50 ([1]; promastigotes, 96 h) of the same compound?
The IC50 was 8 µM.

What about the IC50 (L. major promastigotes; promastigotes, 96 h) of the same compound?
Its IC50 is 10 µM.

What about the LC50 (Rat erythrocytes) of the same compound?
Its LC50 is 26 µM.

What about the MIC ([2]; serotype Enteritidis) of the same compound?
Its MIC is 6 µM.

What about the MIC (E. coli ATCC 25922; ATCC 25922) of the same compound?
The MIC was 3 µM.

And the MIC (E. coli ML-35p [3])?
Its MIC is 3 µM.

And the IC50 ([4]; intramacrophagic) amastigotes in THP-1-derived macrophages, 24 h)?
Its IC50 is 5 µM.

And the IC50 (Human THP-1 monocytes)?
Its IC50 is 48 µM.

What about the LC50 [5] of the same compound?
The LC50 was 55 µM.

And the IC50 ([6]; 96 h)?
Its IC50 is 5 µM.

What about the IC50 [7] of the same compound?
Its IC50 is 9 µM.

And the MIC (S. aureus ATCC 25923; ATCC 25923)?
The MIC was 3 µM.

And the MIC (P. aeruginosa ATCC 27853; ATCC 27853)?
The MIC was 6 µM.

What about the MIC (C. albicans ATCC 90028; ATCC 90028, 96 h) of the same compound?
Its MIC is 6 µM.

And the IC50 (Human fibroblasts (HFF))?
Its IC50 is over 100 µM.

What about the “MICGM (geometric mean of the MIC values)” value (Gram-positive bacteria) of the same compound?
The value was 2.8 µM.

What about the IC50 (T. brucei gambiense; gambiense, 96 h) of the same compound?
The IC50 was 16 µM.

What about the IC50 ([9]; axenic) amastigotes, 96 h) of the same compound?
The IC50 was 20 µM.

What about the MIC (S. pyogenes ATCC 19615; ATCC 19615) of the same compound?
The MIC was 1 µM.

What about the MIC (L. ivanovii) of the same compound?
Its MIC is 3 µM.

What about the IC50 (Human HepG2) of the same compound?
Its IC50 is 358 µM.

And the MIC (S. aureus ATCC 43300)?
Its MIC is 3 µM.

What about the MIC (S. cerevisiae; 96 h) of the same compound?
Its MIC is 3 µM.

And the LC50 (Human erythrocytes [15])?
The LC50 was 50 µM.

And the “MIC (range over strains)” value [16]?
Its value is 1 to 6 µM.

And the IC50 (T. cruzi epimastigotes; epimastigotes, 120 h)?
The IC50 was 10 µM.

What about the “MICGM (geometric mean of the MIC values)” value (Gram-negative bacteria) of the same compound?
The value was 3.8 µM.

And the MIC (K. pneumoniae ATCC 13883; ATCC 13883)?
Its MIC is 3 µM.

What about the IC50 ([13]; 96 h) of the same compound?
The IC50 was 5 to 10 µM.

And the MIC (S. aureus ATCC BAA-44; ATCC BAA-44)?
The MIC was 3 µM.

And the MIC ([14]; ATCC 22019, 96 h)?
The MIC was 25 µM.

And the MIC (S. aureus ST1065; ST1065)?
Its MIC is 3 µM.

What about the “MICGM (geometric mean of the MIC values)” value (Yeasts/fungi) of the same compound?
The value was 7.7 µM.

What about the “MIC (range over strains)” value (Yeasts/fungi; yeasts/fungi) of the same compound?
Its value is 3 to 25 µM.

How did the “DNA fragmentation (FITC-positive cells)” value [17] turn out when CCCCCCCCCCCCCCCCOP(=O)([O-])OCC[N+](C)(C)C [Miltefosine, hexadecylphosphocholine] was run?
Its value is “approximately 65%”.

And the “Sub-G1 phase (% of cells)” value [18]?
Its value is 29.1 % of cells.

What about the “Sub-G1 phase (% of cells)” value ([18]; listed as miltefosine) of the same compound?
Its value is 29 % of cells.
